# Assay results taken from patent EP0145484B1, “Vancomycin purification improvement and product” (ELI LILLY AND COMPANY, priority 1983, dated 1985).
# Experiment: Stability of bulk samples on storage
# Assay type: physicochemical
# Settings: three lots prepared by the method of Example 2, stored at 21-28°C in polyethylene containers; over a twelve month period; 525600 min
# Experimental: The vancomycin diphosphate crystal form provided by this invention is a highly crystalline solid when hydrated that is stable over prolonged periods of time. The stability of bulk samples of vancomycin diphosphate was determined by preparing three lots of the compound by the method of Example 2. Samples of the three individual lots were stored at 21-28°C in polyethylene containers. Various physical parameters of each of the three lots were analyzed at zero, six, twelve and eighteen months.
substance,measurement,value
vancomycin diphosphate,initial biological activity retained,more than 90%
